Here are results for one compound from patent US12098129B2, “Pharmaceutical composition for treating fibrosis” (LTT BIO-PHARMA CO., LTD., priority 2018, dated 2024).

The subject of series [1] is LL29 cells (IPF patient-derived lung fibroblast cells). Briefly: MTT cell viability of lung fibroblast cells compared with alveolar epithelial cells. In kind it is cell-based, human. The method, then: (§1) A549 cells (human alveolar epithelial cells) and LL29 cells (IPF patient-derived lung fibroblast cells) were cultured under conditions of 37° C. and 5% CO2 by using, respectively, Dulbecco's modified Eagle's medium containing 10% FBS and Ham's F-12K (Kaighn's) medium containing 15% FBS.
(§2) The number of living cells was measured by an MTT method or trypan blue staining using Countess (trademark) Automated Cell Counter (Invitrogen, Carlsbad, CA). For evaluation of cell death, LDH activity in the medium was measured in accordance with the protocol of the assay kit.
For a specific method, IPF patient-derived lung fibroblast cells (LL29 cells) and human alveolar epithelial cells (A549 cells) were treated with existing approved drugs, and the cell viability 24 hours later was evaluated by an MTT method.
As with (b-1) above, IPF patient-derived lung fibroblast cells (LL29 cells) and human alveolar epithelial cells (A549 cells) were treated with existing approved drugs, and the cell viability 24 hours later was evaluated by an MTT method.

Series [2] deals with LL29 cells. In words: LDH activity in the medium (cell death), LL29 cells. In kind it is cell-based, human. Particulars: 150 μM. The method, then: as §1, §2
(§3) More minute doses than the doses used during screening test were applied to examine the cell death inducing action of idebenone and to simultaneously conduct a screening reproducibility experiment.

Series [3] deals with A549 cells (human alveolar epithelial cells). Briefly: LDH activity in the medium (cell death), A549 cells. In kind it is cell-based. Particulars: 150 μM. As to the method:
as §1, §2, §3

The test system of series [4] is LL29 cells. In words: Number of living and dead cells by trypan blue staining, LL29 cells. The format is cell-based, human. As to the method: as §1, §2
(§4) Thus, the present inventors measured the number of living cells and the number of dead cells with the aid of trypan blue staining.

Series [5] deals with A549 cells. Briefly: Number of living and dead cells by trypan blue staining, A549 cells. In kind it is cell-based, human. The method, then: as §1, §2, §4
For series [6], the system named is BLM pulmonary injury model mouse. In words: BLM pulmonary injury model: H&E / Masson's trichrome staining, Ashcroft score, hydroxyproline. In kind it is in vivo.
Series [7] has the same test system. Briefly: BLM pulmonary injury model: lung function (elastance, FVC) with ventilator for mice. In kind it is in vivo. As to the method:
(§5) On day 1, BLM was administered via the airway to a normally reared male ICR mouse to prepare a BLM pulmonary injury model mouse.
The lung function was measured in accordance with previous literature by using a computer-controlled ventilator for small animals (FlexiVent; SCIREQ, Montreal, Canada). A metal tube (with an outer diameter of 1.27 mm and an inner diameter of 0.84 mm) was inserted by 8 mm into a mouse anesthetized with chloral hydrate (500 mg/kg), and the mouse was caused to breathe mechanically at a rate of 150 breaths/min with a tidal volume of 8.7 ml/kg and a positive end-expiratory pressure ventilation of 2-3 cm H2O.
The total respiratory elastance and the tissue elastance were measured by the snap shot and the forced oscillation technique, respectively. The forced vital capacity was measured in accordance with Chest 142, 1011-1019 (2012) by using the computer-controlled ventilator for small animals and a negative pressure reservoir (SCIREQ, Montreal, Canada). All the data was analyzed by using FlexiVent software (version 5.3; SCIREQ, Montreal, Canada).

Series [8] shares this test system. In words: BLM pulmonary injury model: α-SMA immunostaining of the lung (myofibroblast cells). In kind it is in vivo. Conditions: FIGS. 7A and 7B. The method, then:
as §5
A method for immunostaining with α-SMA was carried out by blocking the section with 2.5% goat serum for 10 minutes, and then performing a primary antibody treatment (against α-SMA, 1:100 dilution). At 12 hours later, the section was incubated with Alexa Fluor 594 goat anti-rabbit immunoglobulin G and DAPI for 2 hours. Thereafter, the section was encapsulated by using VECTA SHIELD. The section was photographed by using a microscope (Olympus DP71).
An α-SMA-positive region was quantitatively determined by using Image J software (National Institutes of Health, Bethesda, MD) The number of 8-OHdG-positive cells was quantitatively determined by using Definiens Tissue Studio (trademark) software (CTC Life Science Corporation, Tokyo, Japan).

Series [9] has as its system LL29 cells. In words: TGF-β1-dependent activation of lung fibroblast cells: amount of collagen in the medium. The format is cell-based, human. Conditions: LL29 cells treated with drug, then TGF-β1. The method, then:
as §1
(§6) As described above, myofibroblast cells played an important role on pulmonary fibrosis in patients with IPF and bleomycin-induced pulmonary fibrosis. Thus, with attention focused on myofibroblast cells, the effects of idebenone and COQ10 were examined. […] Thus, the effects of idebenone and CoQ10 on TGF-β1-dependent activation of lung fibroblast cells (differentiation into myofibroblast cells) were compared. LL29 cells were treated with idebenone or CoQ10, and then treated with TGF-β1, and the amount of collagen in the medium was measured. […] Next, the effect of idebenone was examined by using the levels of α-SMA and mRNA of collagen as indices.

In series [10] the test system is LL29 cells. Briefly: TGF-β1-dependent activation of lung fibroblast cells: α-SMA and Col1a1 mRNA by real-time RT-PCR. The format is cell-based, human. The method, then:
Total RNA of cells was extracted by using RNeasy kit (Qiagen). 2.5 μg of total RNA was subjected to reverse transcription reaction in accordance with the protocol from Takara Bio Inc by using a first-strand cDNA synthesis kit (Takara Bio Inc). The synthesized cDNA was analyzed with a CFX96 (trademark) real time system by using SsoFast EvaGreen Supermix. For equalizing the total RNA amounts in the reactions, a glyceraldehyde-3-phosphate dehydrogenase (GAPDH) gene was used as an internal standard.
as §1, §6

The mark [11] stands for this setting: airway administration, pre-administration (FIG. 3D).

For the compound `COC1=C(OC)C(=O)C(CCCCCCCCCCO)=C(C)C1=O` [idebenone], in series [1] (LL29 versus A549 cells, survived cell number), the “fibroblast cell-selective decrease in cell viability / cell death (LL29 versus A549)” value is “decreased the cell viability of LL29 cells (lung fibroblast cells) at a concentration lower than a concentration at which the cell viability of A549 cells (alveolar epithelial cells) decreased”. The “difference in IC50 (concentration required to decrease the cell viability by 50%) between LL29 and A549 cells” value in series [1] (screening of existing approved drugs, MTT, 24 hours, IC50 for LL29 lower than for A549) is listed as “particularly marked difference in value of IC50”. The “LDH released into the medium” value in series [2] is on record as “LDH was released into the medium”. Also, the “LDH released into the medium” value in [3] is “little LDH was released”. In series [4], the “concentration at which induction of cell death started” value stood at 175 µM and the “concentration at which suppression of proliferation started” value stood at 75 µM. In addition, in series [5], the “concentration at which suppression of cell proliferation started” value was found to be 175 µM. In addition, the “induction of cell death” value in [5] (examined concentrations) was “did not induce cell death at examined concentrations”. Further, the “effect of drug alone on pulmonary fibrosing and the respiratory function” value in [6] (airway administration, 18.8 mg/kg, alone (without BLM)) is “did not affect pulmonary fibrosing and the respiratory function”. Also, in series [6] (airway administration, comparison idebenone / CoQ10 (FIGS. 5A to 5C)), the “pulmonary injury and fibrosing by bleomycin” value was “suppressed”. In series [6] (airway administration, pre-administration (FIG. 3B)), the “BLM-dependent increase in Ashcroft score” value was “markedly suppressed such an increase”. Also, the “BLM-dependent increase in amount of hydroxyproline” value in [6] (airway administration, pre-administration (FIG. 3C)) was “markedly suppressed such an increase”. Moreover, the “BLM-dependent pulmonary injuries and collagen accumulation” value in series [6] (airway administration, pre-administration day 1 to day 7 (FIG. 3A)) is “markedly suppressed such injuries and collagen accumulation”. Moreover, the “pulmonary injury and fibrosing by bleomycin” value in series [6] (therapeutic effects, comparison idebenone / CoQ10 (FIGS. 6A to 6C)) is on record as “suppressed”. The “pulmonary injury and fibrosing 20 days after administration of BLM” value in series [6] (therapeutic: airway administration started 10 days after BLM (FIGS. 4A to 4C)) is “markedly suppressed pulmonary injury and fibrosing”. Also, in series [7] (setting [11]), the “BLM-dependent decrease in FVC” value was “tended to suppress such a decrease”; the “BLM-dependent increase in total respiratory system elastance and tissue elastance” value is “suppressed such an increase”. Moreover, the “BLM-dependent decrease in respiratory function” value in [7] (therapeutic: airway administration started 10 days after BLM (FIG. 4D)) is on record as “markedly suppressed a BLM-dependent decrease in respiratory function”. Moreover, the “bleomycin-induced increase in number of α-SMA-positive cells (myofibroblast cells) of the lung” value in series [8] is listed as “markedly suppressed such an increase”. The “TGF-β1-induced increase in amount of collagen in the medium” value in [9] was “suppressed such an increase”. For the same compound, the “TGF-β1-induced expression of α-SMA and Col1a1 mRNA” value in [10] is “suppressed such induction”.
